# Laboratory results: publication PMC6100472, “Cyclodextrins: Assessing the Impact of Cavity Size, Occupancy, and Substitutions on Cytotoxicity and Cholesterol Homeostasis” (Molecules : A Journal of Synthetic Chemistry and Natural …, 2018)
# Experiments:
# [1] = system: whole blood (erythrocytes); test: In vitro hemolysis test in whole blood samples; type: cell-based, human; conditions: RBC count 1 × 10^9
# Method: For these experiments, healthy volunteers with identical main blood groups [A, Rhesus blood factor D (Rh) positive] but differing in their plasma lipid contents were selected. Plasma and cellular blood components were separated from the freshly taken sodium-citrated blood by centrifugation (2500× g, 10 min, 4 °C). The sedimented composite cellular fraction (red and white blood cells, and platelets) was washed with PBS, then re-suspended either in their own original plasma or in the foreign plasma with the identical blood group, resulting in erythrocyte/plasma combinations of normal cholesterol/lipid levels or higher cholesterol/lipid levels. The erythrocyte count was adjusted to 4 × 10^9 per mL in the blood. In this case, hemolysis test mixtures contained 0.04 mL of test solution with increasing concentrations of methyl-β-CD, 0.25 mL of blood, and 0.01 mL of 3% Na2CO3. Incubation and subsequent centrifugation conditions were identical to the above. Aliquots of the supernatant were diluted using PBS (containing 3% Na2CO3), and their hemoglobin content was determined. Again, dose-effect curves were constructed from multi-point determinations of triplicate runs. The levels of cholesterol, high-density lipoprotein (HDL), and triglyceride in plasma were determined by the use of standard laboratory procedures.
# [2] = system: isolated human erythrocytes; test: In vitro hemolysis test using isolated human erythrocytes; type: cell-based
# Method: Venous blood was taken from healthy volunteers and placed in plastic tubes containing sodium–citrate anti-coagulant. The cell fraction including erythrocytes was separated from the plasma components by centrifugation (2500× g, 10 min, 20 °C), washed three times with phosphate buffered saline (PBS) solution, and re-suspended in the same solution. The erythrocyte count was adjusted to 10^9 per mL under the control of a Laborscale cell analyzer (Medicor, Hungary). The test was performed in standard Eppendorf-type plastic tubes, where the incubation mixture consisted of 1.3 mL of reagent solution containing increasing concentrations of CDs dissolved in PBS, 0.05 mL of erythrocyte suspension containing 5 × 10^7 red blood cells, and 0.05 mL of 3% Na2CO3. After 10 min incubation at 37 °C, samples were mixed and centrifuged at 5000x g. The absorbance of the released hemoglobin in the supernatant was determined at 540 nm spectrophotometrically. As a reference, total (100%) hemolysis was obtained by replacing PBS with distilled water. CD-induced hemolysis was related to this reference value and expressed as percent hemolysis. All of the experiments included at least 10 different concentrations of the test materials in triplicate runs to allow the plotting of dose-effect curves from multi-point determinations, and to calculate EC50 values. In order to investigate the protective effect of plasma components, aliquots of PBS were replaced by 50 µL, 100 µL, and 200 µL of blood plasma in the incubation mixture. Plasma protein concentration was determined by the biuret method.
# [3] = system: primary fibroblast cells from an NPC patient (NPC1 mutant); test: Intracellular cholesterol distribution by Filipin III staining; type: cell-based, human; conditions: 1 mM, 72 h, NPC1 mutant primary fibroblasts
# Method: We determined the effects of the CD derivatives on intracellular cholesterol accumulation in primary fibroblast cells derived from an NPC patient using Filipin III, a fluorescent compound that specifically binds to unesterified cholesterol. After treatment with the CD derivatives (1 mM) for 72 h, the cells were examined for the fluorescent intensity of Filipin III using a fluorescence microscope. […] Studies are underway to define the molecular mechanisms by which HPβCD and HPγCD alleviate the cholesterol-trafficking defect. Cells were incubated in medium containing CD derivatives at 1 mM for 72 h. Cells were washed three times with PBS and fixed with 3.7% paraformaldehyde for 30 min at room temperature. After washing with PBS, cells were stained with PBS containing Filipin III (12.5 μg/mL) for 30–45 min at room temperature in the dark. After washing with PBS and applying a mounting medium, cells were analyzed using a Nikon TE2000 widefield microscope (Nikon, Melville, NY, USA).
# HeLa cells = test: MTS cell viability assay (CellTiter 96 AQueous One) in HeLa cells; type: cell-based, human; conditions: 10 mM, 24 h
# Method: (§1) The CD/lipid inclusion complexes were then tested for their ability to reduce the metabolic activity (or cell viability) in HEK293T cells and HeLa cells (Figure 4) using the CellTiter 96 AQueous One Solution Cell Proliferation Assay Kit (Promega). Cells were treated with 10 mM of the free RAMEB, cholesterol-loaded RAMEB, linoleic acid-loaded RAMEB, or β-sitosterol-loaded RAMEB. At 24 h after treatment, a cell viability assay was conducted, and the absorbance at 490 nm was measured to determine the levels of the reaction products that were generated in metabolically active cells. Triton X-100 (TX) was included as a positive control for cytotoxicity. […]
# (§2) The effects of CD treatment on cell viability and cytotoxicity were determined using the CellTiter 96 AQueous One Solution Cell Proliferation Assay Kit (Promega) and LDH Cytotoxicity Assay Kit (Thermo Fisher Scientific), respectively. […] The absorbance of the plates was recorded at 490 nm with an xMark microplate absorbance spectrophotometer (Bio-Rad, Hercules, CA, USA). […] Extracellular LDH in the media can be quantified by a coupled enzymatic reaction in which LDH catalyzes the conversion of lactate to pyruvate via nicotinamide adenine dinucleotide (NAD^+) reduction to NADH. Diaphorase then uses NADH to reduce a tetrazolium salt (INT) to a red formazan product that can be measured at 490 nm. […]
# HEK293T cells = test: MTS cell viability assay (CellTiter 96 AQueous One) in HEK293T cells; type: cell-based, human; conditions: 10 mM, 24 h
# Method: as §1, §2
# [4] = isolated human erythrocytes in PBS, no plasma
# [5] = isolated human erythrocytes in PBS, plasma 50 μL
# [6] = isolated human erythrocytes in PBS, plasma 100 μL
# [7] = isolated human erythrocytes in PBS, plasma 200 μL
Compound,"Hemolytic EC50 [2, 4] [µg/mL]","Hemolytic EC50 [2, 5] [µg/mL]","Hemolytic EC50 [2, 6] [µg/mL]","Hemolytic EC50 [2, 7] [µg/mL]",Effect on intracellular cholesterol accumulation (Filipin III fluorescence) [3],also measured
"COC[C@H]1O[C@@H]2O[C@H]3[C@H](O)[C@@H](OC)[C@@H](O[C@H]4[C@H](O)[C@@H](OC)[C@@H](O[C@H]5[C@H](O)[C@@H](OC)[C@@H](O[C@H]6[C@H](O)[C@@H](OC)[C@@H](O[C@H]7[C@H](O)[C@@H](OC)[C@@H](O[C@H]8[C@H](O)[C@@H](OC)[C@@H](O[C@H]1[C@H](O)[C@H]2OC)O[C@@H]8COC)O[C@@H]7COC)O[C@@H]6COC)O[C@@H]5COC)O[C@@H]4COC)O[C@@H]3COC [DIMEB-50, Heptakis (2,6-di-O-methyl)-β-cyclodextrin]",1200 ± 200,8500 ± 200,9400 ± 400,11900 ± 300,,"Hemolytic EC50 ([1]; plasma CHO 2.22 mM, HDL 1.13 mM, TG 0.48 mM): 18000 ± 200 µg/mL; Hemolytic EC50 ([1]; plasma CHO 4.38 mM, HDL 0.58 mM, TG 1.08 mM): 22400 ± 400 µg/mL; EC50DIMEB (hemolytic potency) ([2]; 5 mg/mL BSA (Figure 2)): 1380 µg/mL; EC50DIMEB (hemolytic potency) ([2]; 10 mg/mL bovine serum albumin (BSA) (Figure 2)): 1530 µg/mL; EC50DIMEB (hemolytic potency) ([2]; 100-µL plasma resulting in 5 mg/mL protein concentration in the mixture (Figure 2)): 9380 µg/mL; EC50DIMEB (hemolytic potency) ([2]; 200-µL plasma resulting in 10 mg/mL protein concentration in the mixture (Figure 2)): 11960 µg/mL; Hemolytic EC50 ([2]; RBCs-washed, 200 μL plasma added, plasma CHO 0.76 mM, HDL 0.25 mM, TG 0.13 mM, RBC count 5 × 10^7): 12600 ± 200 µg/mL; Hemolytic EC50 ([2]; RBCs-washed, no plasma added, RBC count 5 × 10^7): 1320 ± 100 µg/mL"
"COC[C@H]1O[C@@H]2O[C@H]3[C@H](O)[C@@H](OC)[C@@H](O[C@H]4[C@H](O)[C@@H](OC)[C@@H](O[C@H]5[C@H](O)[C@@H](OC)[C@@H](O[C@H]6[C@H](O)[C@@H](OC)[C@@H](O[C@H]7[C@H](O)[C@@H](OC)[C@@H](O[C@H]8[C@H](O)[C@@H](OC)[C@@H](O[C@H]1[C@H](O)[C@H]2OC)O[C@@H]8COC)O[C@@H]7COC)O[C@@H]6COC)O[C@@H]5COC)O[C@@H]4COC)O[C@@H]3COC [DIMEB-95, Heptakis (2,6-di-O-methyl)-β-cyclodextrin]",1200 ± 300,4700 ± 400,6500 ± 600,8800 ± 500,,
"CC(O)COC[C@H]1O[C@@H]2O[C@H]3[C@H](O)[C@@H](O)[C@@H](O[C@H]4[C@H](O)[C@@H](O)[C@@H](O[C@H]5[C@H](O)[C@@H](O)[C@@H](O[C@H]6[C@H](O)[C@@H](O)[C@@H](O[C@H]7[C@H](O)[C@@H](O)[C@@H](O[C@H]8[C@H](O)[C@@H](O)[C@@H](O[C@H]1[C@H](O)[C@H]2O)O[C@@H]8COCC(C)O)O[C@@H]7COCC(C)O)O[C@@H]6COCC(C)O)O[C@@H]5COCC(C)O)O[C@@H]4COCC(C)O)O[C@@H]3COCC(C)O (stereo partly drawn) [HPβCD, Hydroxypropyl-β-cyclodextrin]",,,,,reduction in cholesterol accumulation,
"COC[C@H]1O[C@@H]2O[C@H]3[C@H](OC)[C@@H](OC)[C@@H](O[C@H]4[C@H](OC)[C@@H](OC)[C@@H](O[C@H]5[C@H](OC)[C@@H](OC)[C@@H](O[C@H]6[C@H](OC)[C@@H](OC)[C@@H](O[C@H]7[C@H](OC)[C@@H](OC)[C@@H](O[C@H]8[C@H](OC)[C@@H](OC)[C@@H](O[C@H]1[C@H](OC)[C@H]2OC)O[C@@H]8COC)O[C@@H]7COC)O[C@@H]6COC)O[C@@H]5COC)O[C@@H]4COC)O[C@@H]3COC [TRIMEB, Heptakis (2,3,6-tri-O-methyl)-β-cyclodextrin]",7300 ± 200,11300 ± 300,14700 ± 400,19000 ± 200,,
Hydroxypropyl-γ-cyclodextrin [HPγCD],,,,,reduction in cholesterol accumulation,
Randomly methylated β-cyclodextrin [RAMEB],2300 ± 300,5200 ± 300,7000 ± 400,9700 ± 500,,Effect on cell viability (metabolic activity) (HeLa cells): significant reduction in metabolic activity; Effect on cell viability (metabolic activity) (HEK293T cells): significant reduction in metabolic activity
